Test results: US20140187505A1, “Cardiac Glycosides to Treat Cystic Fibrosis and Other IL-8 Dependent Disorders” (priority 2002, published 2014)
“And” between values parts separate entries of the source, which are not always exact repeats. Identical values can stand only once. Like-named read-outs stand apart in the source and are kept apart here.

Assays:
[1] = tested on: IL-8 secretion from cystic fibrosis lung epithelial IB3-1 cells
[2] = eluent acetonitrile/water 45:55; cited from earlier work
[3] = octanol/water (20 mM TRIS-HCl, pH 7.4); cited from earlier work
[4] = tested on: guinea-pig heart Na^+-K^+-ATPase; conditions: cited from earlier work
[5] = mobile phase: methanol/water 30:70; cited from earlier work
[6] = tested on: human vascular endothelial cells (HUVEC); conditions: in vitro, read-out: 50% kill concentration; cited from earlier work
[7] = for 70 kg man; cited from earlier work
[8] = tested on: HeLa cervical cancer cells; experiment: cells; conditions: Homo sapiens, 24 h, read-out: IC50 dose for cell death
[9] = tested on: HeLa cervical cancer cells; conditions: human
[10] = read-out: IC50 nmol/L in cells, 50% suppression of spontaneous IL-8 secretion, IB3-1 cells, 48 hours
[11] = Homo sapiens, IB3-1, 48 h, read-out: IC50 nmol/L in cells
[12] = Homo sapiens, IB3-1, 48 h, read-out: IC50 (K50) for spontaneous IL-8 secretion

Compound | K retentions for reversed-phase high pressure liquid chromatography [2] | IC50 [1, 11] | P (partition coefficient in octanol/water system) [3] | ID50 [4] | RM values (lipophilicity, reversed-phase thin layer chromatography) [5] | also measured
CC(=O)O[C@H]1CC[C@@]2(C)[C@H](CC[C@@H]3[C@@H]2C[C@@H](OC(C)=O)[C@]2(C)[C@@H](C4=CC(=O)OC4)CC[C@]32O)C1 (single isomer, unassigned; diac) [digoxigenin3,12 diAC, digoxigenin 3,12 diAC] | – | – | – | – | – | Activity on IL-8 secretion ([1]; at a concentration of 1000 nM (1 micromolar)): entirely inactive; IC50 [1, 10]: > 1000 nmol/L
CC(=O)O[C@H]1CC[C@]2(C=O)[C@H]3CC[C@]4(C)[C@@H](C5=CC(=O)OC5)CC[C@]4(O)[C@@H]3CC[C@]2(O)C1 [acetylstrophanthdin, acetyl-strophanthidin] | – | – | – | – | – | IC50 [1, 10]: 117 nmol/L
C[C@]12CC[C@H](O)C[C@H]1CC[C@@H]1[C@@H]2CC[C@]2(C)[C@@H](C3=CC(=O)OC3)CC[C@]12O [digitoxigenin] | 1.81 | 74 nmol/L | 270.0 ± 94.1 | 1.63 ± 0.06 ×10^−4 mol l^−1 | 1.03 | –
C[C@]12CC[C@H](O)C[C@H]1CC[C@@H]1[C@@H]2C[C@@H](O)[C@]2(C)[C@@H](C3=CC(=O)OC3)CC[C@]12O [digoxigenin] | – | 34 nmol/L | 13.5 ± 2.3 | – | – | –
C[C@H]1O[C@@H](O[C@H]2[C@@H](O)C[C@H](O[C@H]3[C@@H](O)C[C@H](O[C@H]4CC[C@@]5(C)[C@H](CC[C@@H]6[C@@H]5C[C@@H](O)[C@]5(C)[C@@H](C7=CC(=O)OC7)CC[C@]65O)C4)O[C@@H]3C)O[C@@H]2C)C[C@H](O)[C@@H]1O [digoxin] | 0.50 | 27 nmol/L | – | 0.90 ± 0.07 ×10^−4 mol l^−1 | 0.25 | IC50 [6]: ~210 nM; IC50 [1, 12]: ~27 nmol/L; Human toxicity limit [7]: 1900 nmol; Human toxicity limit, Nmol/L = nM [7]: 27.1 nM
CO[C@H]1C[C@H](O[C@H]2CC[C@@]3(C)[C@H](CC[C@@H]4[C@@H]3CC[C@]3(C)[C@@H](C5=CC(=O)OC5)[C@@H](OC(C)=O)C[C@]43O)C2)O[C@@H](C)[C@@H]1O [oleandrin] | – | 2 nmol/L | – | – | – | IC50 [1, 12]: ~2 nmol/L; IC50 [8]: ~100 nM; Threshold concentration for an increase in cell death [9]: ca. 30 nM
C[C@@H]1O[C@@H](O[C@H]2C[C@@H](O)[C@]3(CO)[C@H]4[C@H](O)C[C@]5(C)[C@@H](C6=CC(=O)OC6)CC[C@]5(O)[C@@H]4CC[C@]3(O)C2)[C@H](O)[C@H](O)[C@H]1O [ouabain] | 0.14 | 8 nmol/L | 0.02 and 0.02 ± 0.00 | 2.28 ± 0.10 ×10^−4 mol l^−1 | −0.73 | IC50 [6]: 240 nM and 357 nM and ~240 nM and ~357 nM; IC50 [8]: ~200 nM; Threshold concentration for an increase in cell death [9]: ca. 50 nM; Human toxicity limit [7]: 1683 nmol
α-Methyldigoxin | 1.13 | – | 56.6 ± 9.8 | 2.23 ± 0.11 ×10^−4 mol l^−1 | 0.54 | –
β-Acetyldigoxin | 1.25 | – | 99.2 ± 4.1 | 1.60 ± 0.02 ×10^−4 mol l^−1 | 0.70 | –
